Patent US6911469B2, “Sulfonamide compounds and pharmaceutical use thereof” (Fujisawa Pharmaceutical Co., Ltd., priority 1997, dated 2005)

| SMILES | melting point |
| --- | --- |
| CCCCCS(=O)(=O)NC(=O)c1ccc2nc(C)n(Cc3ccc(C(F)(F)F)cc3Cl)c2n1 [Example 102-2, 3-[2-chloro-4-(trifluoromethyl)-benzyl]-2-methyl-5-(1-pentanesulfonylcarbamoyl)-3H-imidazo[4,5-b]pyridine] | 154 to 155 °C |
| CCCCCS(=O)(=O)NC(=O)c1cc(C)c2nc(C)n(Cc3ccc4ccccc4c3Br)c2n1 [Example 104-1, 3-(1-bromonaphthalen-2-ylmethyl)-2,7-dimethyl-5-(pentanesulfonylcarbamoyl)-3H-imidazo[4,5-b]pyridine] | 210 to 211 °C |
| Cc1cc(C(=O)NS(=O)(=O)c2ccccc2)nc2c1nc(C)n2Cc1ccc2ccccc2c1Br [Example 104-2, 5-(benzenesulfonylcarbamoyl)-3-(1-bromonaphthalen-2-ylmethyl)-2,7-dimethyl-3H-imidazo[4,5-b]pyridine] | 229 to 230 °C |
| Cc1cc(C(=O)NS(=O)(=O)/C=C/c2ccccc2)nc2c1nc(C)n2Cc1ccc2ccccc2c1Br [Example 104-3, (E)-3-(1-bromonaphthalen-2-ylmethyl)-2,7-dimethyl-5-((2-phenylethenyl)sulfonylcarbamoyl)-3H-imidazo[4,5-b]pyridine] | 262 to 263 °C |
| Cc1cc(C(=O)NS(=O)(=O)c2ccc(Cl)s2)nc2c1nc(C)n2Cc1ccc2ccccc2c1Br [Example 104-6, 3-(1-bromonaphthalen-2-ylmethyl)-2,7-dimethyl-5-((5-chlorothiophen-2-yl)sulfonylcarbamoyl)-3H-imidazo[4,5-b]pyridine] | 213 to 214 °C |
| CCCCCS(=O)(=O)NC(=O)c1cc(C)c2nc(C)n(Cc3ccc(Br)cc3Cl)c2n1 [Example 105, 3-(4-bromo-2-chlorobenzyl)-2,7-dimethyl-5-(pentanesulfonylcarbamoyl)-3H-imidazo[4,5-b]pyridine] | 148 to 149 °C |
| Cc1cc(C(=O)NS(=O)(=O)/C=C/c2ccccc2)nc2c1nc(C)n2Cc1ccc(Br)cc1Cl [Example 106-2, (E)-3-(4-bromo-2-chlorobenzyl)-2,7-dimethyl-5-[(2-phenylethenyl)sulfonylcarbamoyl]-3H-imidazo[4,5-b]pyridine] | 225 to 227 °C |
| Cc1cc(C(=O)NS(=O)(=O)c2ccc(Cl)s2)nc2c1nc(C)n2Cc1ccc(Br)cc1Cl [Example 106-3, 3-(4-bromo-2-chlorobenzyl)-5-[(5-chlorothiophen-2-yl)sulfonylcarbamoyl]-2,7-dimethyl-3H-imidazo[4,5-b]pyridine] | 214 to 215 °C |
| Cc1nc2ccc(C(=O)NS(=O)(=O)c3ccccc3)nc2n1Cc1ccc(C#N)cc1Cl [Example 108, 5-(benzenesulfonylcarbamoyl)-3-(2-chloro-4-cyanobenzyl)-2-methyl-3H-imidazo[4,5-b]pyridine] | 242 to 243 °C |
| Cc1nc2ccc(C(=O)NS(=O)(=O)/C=C/c3ccccc3)nc2n1Cc1ccc(C(F)(F)F)cc1Cl [Example 109-1, (E)-3-(2-chloro-4-(trifluoromethyl)benzyl)-2-methyl-5-((2-phenylethenyl)sulfonylcarbamoyl)-3H-imidazo[4,5-b]pyridine] | 140 to 142 °C |
| Cc1nc2ccc(C(=O)NS(=O)(=O)c3ccc(Cl)s3)nc2n1Cc1ccc(C(F)(F)F)cc1Cl [Example 109-3, 3-(2-chloro-4-(trifluoromethyl)-benzyl)-5-((5-chlorothiophen-2-yl)sulfonylcarbamoyl)-2-methyl-3H-imidazo[4,5-b]pyridine] | 170 to 171 °C |
| Cc1nc2ccc(C(=O)NS(=O)(=O)c3ccc(Br)s3)nc2n1Cc1ccc(C(F)(F)F)cc1Cl [Example 109-4, 5-((5-bromothiophen-2-yl)sulfonylcarbamoyl)-3-(2-chloro-4-(trifluoromethyl)benzyl)-2-methyl-3H-imidazo[4,5-b]pyridine] | 172 to 173 °C |
| Cc1cc(C(=O)NS(=O)(=O)c2ccc(Br)s2)nc2c1nc(C)n2Cc1ccc2ccccc2c1Br [Example 112, 3-(1-bromonaphthalen-2-ylmethyl)-5-((5-bromothiophene-2-yl)sulfonylcarbamoyl)-2,7-dimethyl-3H-imidazo[4,5-b]pyridine] | 247 to 248 °C |
| Cc1nc2ccc(C(=O)NS(=O)(=O)c3ccccc3)nc2n1Cc1ccc(CCc2ccccc2)cc1Cl [Example 113, 5-(benzenesulfonylcarbamoyl)-3-(2-chloro-4-(2-phenylethyl)benzyl)-2-methyl-3H-imidazo[4,5-b]pyridine] | 180 to 181 °C |
| Cc1nc2ccc(C(=O)NS(=O)(=O)c3ccccc3)nc2n1Cc1ccc(CO)cc1Cl [Example 115, 5-(Benzenesulfonylcarbamoyl)-3-(2-chloro-4-(hydroxymethyl)benzyl)-2-methyl-3H-imidazo[4,5-b]pyridine] | 198 to 199 °C |
| Cc1nc2ccc(C(=O)NS(=O)(=O)c3ccccc3)nc2n1Cc1ccc(C(=O)O)cc1Cl [Example 116, 5-(benzenesulfonylcarbamoyl)-3-(4-carboxy-2-chlorobenzyl)-2-methyl-3H-imidazo[4,5-b]pyridine] | 155 to 160 °C |
| Cc1nc2ccc(C(=O)NS(=O)(=O)c3ccccc3)nc2n1Cc1ccc(COc2ccccc2)cc1Cl [Example 118, 5-(benzenesulfonylcarbamoyl)-3-(2-chloro-4-((phenyloxy)methyl)-benzyl)-2-methyl-3H-imidazo[4,5-b]pyridine] | 203 to 205 °C |
| CCOC(=O)c1ccc(Cn2c(C)nc3ccc(C(=O)NS(=O)(=O)c4ccccc4)nc32)c(Cl)c1 [Example 119, 5-(benzenesulfonylcarbamoyl)-3-(2-chloro-4-(ethoxycarbonyl)benzyl)-2-methyl-3H-imidazo[4,5-b]pyridine] | 196 to 197 °C |
| CNC(=O)c1ccc(Cn2c(C)nc3ccc(C(=O)NS(=O)(=O)c4ccccc4)nc32)c(Cl)c1 [Example 120, 5-(Benzenesulfonylcarbamoyl)-3-(2-chloro-4-(methylcarbamoyl)benzyl)-2-methyl-3H-imidazo[4,5-b]pyridine] | 257 to 260 °C |
| Cc1cc(C(=O)NS(=O)(=O)c2ccccc2)nc2c1nc(C)n2Cc1ccc(Br)cc1Cl [Example 121, 5-(Benzenesulfonylcarbamoyl)-3-(4-bromo-2-chlorobenzyl)-2,7-dimethyl-3H-imidazo[4,5-b]pyridine] | 231 to 232 °C |
| CSc1ccc(Cn2c(C)nc3ccc(C(=O)NS(=O)(=O)/C=C/c4ccccc4)nc32)c(Cl)c1 [Example 148, 3-(2-chloro-4-(methylthio)benzyl)-2-methyl-5-(E)-[(2-phenylethenyl)sulfonylcarbamoyl]-3H-imidazo[4,5-b]pyridine] | 175 to 176 °C |
| CSc1ccc(Cn2c(C)nc3ccc(C(=O)NS(=O)(=O)c4ccc(Cl)s4)nc32)c(Cl)c1 [Example 149, 3-(2-chloro-4-(methylthio)benzyl)-5-[(5-chlorothiophen-2-yl)sulfonylcarbamoyl]-2-methyl-3H-imidazo[4,5-b]pyridine] | 170 to 171 °C |
| CSc1ccc(Cn2c(C)nc3ccc(C(=O)NS(=O)(=O)c4ccc(Br)s4)nc32)c(Cl)c1 [Example 150, 3-[2-chloro-4-(methylthio)benzyl]-5-[(5-bromothiophen-2-yl)sulfonylcarbamoyl]-2-methyl-3H-imidazo[4,5-b]pyridine] | 169 to 170 °C |
| CCCCCS(=O)(=O)NC(=O)c1ccc2nc(C)n(Cc3ccc(SC)cc3Cl)c2n1 [Example 151, 3-(2-chloro-4-(methylthio)benzyl)-2-methyl-5-(1-pentanesulfonylcarbamoyl)-3H-imidazo[4,5-b]pyridine] | 184 to 185 °C |
| CCCCCS(=O)(=O)NC(=O)c1cc(C)c2nc(C)n(Cc3ccc(-c4ccccc4)cc3Cl)c2n1 [Example 184, 3-(2-chloro-4-phenylbenzyl)-2,7-dimethyl-5-(1-pentanesulfonylcarbamoyl)-3H-imidazo[4,5-b]pyridine] | 227 to 228 °C |
| Cc1cc(C(=O)NS(=O)(=O)c2ccc(Cl)s2)nc2c1nc(C)n2Cc1ccc(-c2ccccc2)cc1Cl [Example 185, 3-(2-chloro-4-phenylbenzyl)-5-[(5-chlorothiophen-2-yl)sulfonylcarbamoyl]-2,7-dimethyl-3H-imidazo[4,5-b]pyridine] | 241 to 242 °C |
| Cc1cc(C(=O)NS(=O)(=O)c2ccc(Br)s2)nc2c1nc(C)n2Cc1ccc(-c2ccccc2)cc1Cl [Example 186, 5-[(5-bromothiophen-2-yl)sulfonylcarbamoyl]-3-(2-chloro-4-phenylbenzyl)-2,7-dimethyl-3H-imidazo[4,5-b]pyridine] | 243 to 244 °C |
| CCCCCS(=O)(=O)NC(=O)c1cc(C)c2nc(C)n(Cc3ccc(-c4cccs4)cc3Cl)c2n1 [Example 188, 3-[2-chloro-4-(thiophen-2-yl)benzyl]-2,7-dimethyl-5-(1-pentanesulfonylcarbamoyl)-3H-imidazo[4,5-b]pyridine] | 220 to 224 °C |
| CCCCCS(=O)(=O)NC(=O)c1cc(C)c2nc(C)n(Cc3ccc(-c4ccc(Cl)s4)cc3Cl)c2n1 [Example 193, 3-[2-chloro-4-(5-chlorothiophen-2-yl)benzyl]-2,7-dimethyl-5-(1-pentanesulfonylcarbamoyl)-3H-imidazo[4,5-b]pyridine] | 215 to 217 °C |
| Cc1cc(C(=O)NS(=O)(=O)/C=C/c2ccccc2)nc2c1nc(C)n2Cc1ccc(-c2ccc(Cl)s2)cc1Cl [Example 196, 3-[2-chloro-4-(5-chlorothiophen-2-yl)benzyl]-2,7-dimethyl-5-[(E)-(2-phenylethenyl)sulfonylcarbamoyl]-3H-imidazo[4,5-b]pyridine] | 224 to 225 °C |
